According to PubChem BioAssay (NCI):
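These data come from cells grown in 96-well plates and exposed to compound for 48 hours at five concentrations. GI50 marks 50% less growth. TGI marks complete inhibition of growth.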

Columns and labels:
Assay in all cases: NCI-60 cell line screen, 48 h
SNB-75 CNS = test system: SNB-75 CNS
NCI-H23 lung = test system: NCI-H23 lung
PC-3 prostate = test system: PC-3 prostate
HS 578T breast = test system: HS 578T breast
MDA-MB-435 = test system: MDA-MB-435
RXF 393 renal = test system: RXF 393 renal
BT-549 breast = test system: BT-549 breast
ACHN renal = test system: ACHN renal
SR leukemia = test system: SR leukemia
HCT-15 colon = test system: HCT-15 colon
KM12 colon = test system: KM12 colon
HOP-62 NSCLC = test system: HOP-62 NSCLC
COLO 205 colon = test system: COLO 205 colon
DU-145 prostate = test system: DU-145 prostate
SW-620 colon = test system: SW-620 colon
NCI/ADR-RES ovarian = test system: NCI/ADR-RES ovarian
HCT-116 colon = test system: HCT-116 colon
U251 CNS = test system: U251 CNS
A549 NSCLC = test system: A549 NSCLC
SF-295 CNS = test system: SF-295 CNS
OVCAR-3 ovarian = test system: OVCAR-3 ovarian
MALME-3M melanoma = test system: MALME-3M melanoma
T-47D breast = test system: T-47D breast
M14 melanoma = test system: M14 melanoma
IGROV1 ovarian = test system: IGROV1 ovarian
MDA-MB-231 breast = test system: MDA-MB-231 breast
RPMI-8226 leukemia = test system: RPMI-8226 leukemia
786-0 renal = test system: 786-0 renal
SF-539 CNS = test system: SF-539 CNS
SNB-19 CNS = test system: SNB-19 CNS
NCI-H522 lung = test system: NCI-H522 lung
MCF7 breast = test system: MCF7 breast
SF-268 CNS = test system: SF-268 CNS
UACC-257 melanoma = test system: UACC-257 melanoma
UO-31 renal = test system: UO-31 renal
A498 renal = test system: A498 renal
SK-MEL-28 melanoma = test system: SK-MEL-28 melanoma
SN12C renal = test system: SN12C renal
SK-MEL-2 melanoma = test system: SK-MEL-2 melanoma
HOP-92 NSCLC = test system: HOP-92 NSCLC
HL-60(TB) leukemia = test system: HL-60(TB) leukemia
SK-MEL-5 melanoma = test system: SK-MEL-5 melanoma
OVCAR-4 ovarian = test system: OVCAR-4 ovarian
LOX IMVI melanoma = test system: LOX IMVI melanoma
MDA-MB-468 breast = test system: MDA-MB-468 breast
EKVX NSCLC = test system: EKVX NSCLC
NCI-H226 lung = test system: NCI-H226 lung
CCRF-CEM leukemia = test system: CCRF-CEM leukemia
HT29 colon = test system: HT29 colon
CAKI-1 renal = test system: CAKI-1 renal
NCI-H460 lung = test system: NCI-H460 lung
K-562 leukemia = test system: K-562 leukemia
OVCAR-5 ovarian = test system: OVCAR-5 ovarian
HCC-2998 colon = test system: HCC-2998 colon
OVCAR-8 ovarian = test system: OVCAR-8 ovarian
SK-OV-3 ovarian = test system: SK-OV-3 ovarian
TK-10 renal = test system: TK-10 renal
UACC-62 melanoma = test system: UACC-62 melanoma

## N#Cc1c(NC(=O)c2ccc(C(O)(C(F)(F)F)C(F)(F)F)cc2)sc2c1CCC(=O)C2
SNB-75 CNS
  GI50: 1310 nM
  TGI: 4390 nM
NCI-H23 lung
  GI50: 1140 nM
  TGI: 2780 nM
PC-3 prostate
  GI50: 325 nM
  TGI: 1940 nM
HS 578T breast
  GI50: 1770 nM
  TGI: 5550 nM
MDA-MB-435
  GI50: 1930 nM
  TGI: 4180 nM
RXF 393 renal
  GI50: 549 nM
  TGI: 2080 nM
BT-549 breast
  GI50: 422 nM
  TGI: 1780 nM
ACHN renal
  GI50: 346 nM
  TGI: 1350 nM
SR leukemia
  GI50: 546 nM
  TGI: > 34700 nM
HCT-15 colon
  GI50: 1100 nM
  TGI: 2920 nM
KM12 colon
  GI50: 1460 nM
  TGI: 3320 nM
HOP-62 NSCLC
  GI50: 3530 nM
  TGI: 13100 nM
COLO 205 colon
  GI50: 995 nM
  TGI: 2660 nM
DU-145 prostate
  GI50: 3380 nM
  TGI: 11700 nM
SW-620 colon
  GI50: 354 nM
  TGI: 1540 nM
NCI/ADR-RES ovarian
  GI50: 2270 nM
  TGI: 6780 nM
HCT-116 colon
  GI50: 466 nM
  TGI: 5290 nM
U251 CNS
  GI50: 933 nM
  TGI: 2710 nM
A549 NSCLC
  GI50: 2750 nM
  TGI: 12600 nM
SF-295 CNS
  GI50: 2130 nM
  TGI: 5240 nM
OVCAR-3 ovarian
  GI50: 1230 nM
  TGI: 2530 nM
MALME-3M melanoma
  GI50: 641 nM
  TGI: 1940 nM
T-47D breast
  GI50: 496 nM
  TGI: 2330 nM
M14 melanoma
  GI50: 739 nM
  TGI: 2770 nM
IGROV1 ovarian
  GI50: 1810 nM
  TGI: 3860 nM
MDA-MB-231 breast
  GI50: 1470 nM
  TGI: 2930 nM
RPMI-8226 leukemia
  GI50: 434 nM
  TGI: > 100000 nM
786-0 renal
  GI50: 1130 nM
  TGI: 2890 nM
SF-539 CNS
  GI50: 539 nM
  TGI: 1710 nM
SNB-19 CNS
  GI50: 3440 nM
  TGI: 11900 nM
NCI-H522 lung
  GI50: 363 nM
  TGI: 1590 nM
MCF7 breast
  GI50: 616 nM
  TGI: 2530 nM
SF-268 CNS
  GI50: 2370 nM
  TGI: 7270 nM
UACC-257 melanoma
  GI50: 1830 nM
  TGI: 4100 nM
UO-31 renal
  GI50: 682 nM
  TGI: 2000 nM
A498 renal
  GI50: 12200 nM
  TGI: 26500 nM
SK-MEL-28 melanoma
  GI50: 1290 nM
  TGI: 2760 nM
SN12C renal
  GI50: 1290 nM
  TGI: 3330 nM
SK-MEL-2 melanoma
  GI50: 2140 nM
  TGI: 4360 nM
HOP-92 NSCLC
  GI50: 475 nM
  TGI: 1460 nM
HL-60(TB) leukemia
  GI50: 415 nM
  TGI: > 100000 nM
SK-MEL-5 melanoma
  GI50: 1580 nM
  TGI: 2930 nM
OVCAR-4 ovarian
  GI50: 1450 nM
  TGI: 3390 nM
LOX IMVI melanoma
  GI50: 455 nM
  TGI: 1680 nM
MDA-MB-468 breast
  GI50: 600 nM
  TGI: 1670 nM
EKVX NSCLC
  GI50: 2650 nM
  TGI: 8400 nM
NCI-H226 lung
  GI50: 2010 nM
  TGI: 5670 nM
CCRF-CEM leukemia
  GI50: 338 nM
  TGI: 7290 nM
HT29 colon
  GI50: 478 nM
  TGI: 6440 nM
CAKI-1 renal
  GI50: 465 nM
  TGI: 1800 nM
NCI-H460 lung
  GI50: 2730 nM
  TGI: 8490 nM
K-562 leukemia
  GI50: 297 nM
  TGI: > 100000 nM
OVCAR-5 ovarian
  GI50: 1670 nM
  TGI: 3380 nM
HCC-2998 colon
  GI50: 1710 nM
  TGI: 3150 nM
OVCAR-8 ovarian
  GI50: 2270 nM
  TGI: 9400 nM
SK-OV-3 ovarian
  GI50: 2880 nM
  TGI: 8160 nM
TK-10 renal
  GI50: 2380 nM
  TGI: 8700 nM
UACC-62 melanoma
  GI50: 1390 nM
  TGI: 2810 nM
